The values that follow come from patent US11517530B2, “Therapeutic agents specifically delivered by exosomes for cancer treatment” (The Board of Trustees of the Leland Stanford Junior …, priority 2017, dated 2022).

The test system of data set [1] is orthotopically implanted BT474 tumors. The data set can be described thus: In vivo assay for EXO-DEPT EV functionality, tumor growth. The following applies: 2×10^9 EVs i.p., CNOB 3.3 mg/kg i.v. Set-up: species or system nu/nu mice. Here is the method:
In vivo assays for EXO-DEPT EV functionality. All animal experiments were performed in accordance with protocols approved by Stanford University Institutional Animal Care and Use Committee. Number of mice required for this study was determined by power analysis using the G*Power 3.1.5 power calculator (Universitat Dusseldorf) for F-tests of one-way ANOVA by setting Type I error at 5% (alpha=0.05); power was kept at 0.8, and the number of treatment groups=5. The effect size f was calculated as 0.707. This number was then used to determine total sample size of 30 with 6 mice per treatment group (n=6). […] Tumor size was monitored by caliper at two-day intervals, and tumor volume was calculated using the formula: tumor width^2×its length/2. […]
The effect of administration of EXO-DEPT EVs along with CNOB was tested on orthotopically implanted BT474 tumors in athymic mice; the treatment schedule (FIG. 4E) was guided by earlier PK/PD studies. […] After measurable implanted tumors in mice were detected, they were randomly allocated into 5 treatment groups (n=6): untreated; loaded EVs only; CNOB only; undirected loaded EVs+CNOB; and EXO-DEPT-EVs+CNOB. […]
Each mouse was measured at nine time periods, days 0,3,7,11,16,19,24,28,32. A linear regression of tumor burden versus day was fit for each mouse, by ordinary least squares, and its slope calculated. s[i]=slope of mouse[i]'s linear regression

Data set [2] relates to 4T1 murine mammary cells that endogenously generated HChrR6 enzyme. Conditions: initial studies; cited from earlier work.
For data set [3] the following is noted: earlier PK/PD studies; cited from earlier work.

Take `O=c1c(Cl)c2oc3cc([N+](=O)[O-])ccc3nc-2c2ccccc12` [CNOB, 6-chloro-9-nitro-5-oxo-5H-benzo-(a)-phenoxazine]: the tumor growth result in data set [1] (versus controls) is on record as “no significant difference”. In addition, the “mean slope of linear regression of tumor burden versus day” value in data set [1] (days 0-32) was 7.24. For the same molecule, in data set [2], the survival of mice entry is recorded as “marked improvement”.
With `Nc1ccc2nc3c4ccccc4c(=O)c(Cl)c-3oc2c1` [MCHB, 9-p amino-6-chloro-5H-benzo′a″phenoxazine-5-one], the half-life in plasma in data set [3] is 8.3 h.
